# The source made the active and inactive calls. The calls are words filed in the database; no cut-off is given here.
# Columns and labels:
# SH-SY5Y [1] = experiment: Cytoprotective activity against H2O2-induced oxidative stress in human SH-SY5Y cells assessed as cell viability at 10 uM preincubated for 24 hrs followed by H2O2 addition and measured after 1 hr by MTT assay (reference value: 37.88 +/- 8.52%); format: functional; details: read-out: Activity
# SH-SY5Y [2] = experiment: Cytoprotective activity against H2O2-induced oxidative stress in human SH-SY5Y cells assessed as cell viability at 1 uM preincubated for 24 hrs followed by H2O2 addition and measured after 1 hr by MTT assay (reference value: 37.88 +/- 8.52%); format: functional; details: read-out: Activity
# SH-SY5Y [3] = experiment: Cytoprotective activity against H2O2-induced oxidative stress in human SH-SY5Y cells assessed as cell viability at 0.1 uM preincubated for 24 hrs followed by H2O2 addition and measured after 1 hr by MTT assay (reference value: 37.88 +/- 8.52%); format: functional; details: read-out: Activity
# SH-SY5Y [4] = experiment: Cytoprotective activity against H2O2-induced oxidative stress in human SH-SY5Y cells assessed as increase in cell viability preincubated for 24 hrs followed by H2O2 addition and measured after 1 hr by MTT assay; format: functional, cell-based
# SH-SY5Y [5] = experiment: Cytotoxicity against human SH-SY5Y cells at 1 to 10 uM after 24 hrs by MTT assay; format: cell-based
# SH-SY5Y [6] = experiment: Cytoprotective activity against H2O2-induced apoptosis in human SH-SY5Y cells assessed as decrease in Bax levels at 0.1 uM preincubated for 24 hrs followed by H2O2 addition measured after 1 hr by Western blot analysis; format: functional, cell-based
# [7] = target: Eukaryotic translation initiation factor 2 subunit 1 (Homo sapiens) (UniProt P05198); experiment: Inhibition of H2O2-induced eIF2alpha phosphorylation in human SH-SY5Y cells at 0.1 uM; format: cell-based
# SH-SY5Y [8] = experiment: Cytoprotective activity against H2O2-induced apoptosis in human SH-SY5Y cells assessed as relative cleaved PARP levels at 0.1 uM (reference value: 0.725 +/- 0.06); format: functional
# SH-SY5Y [9] = experiment: Cytoprotective activity against H2O2-induced apoptosis in human SH-SY5Y cells assessed as relative cleaved caspase-3 levels at 0.1 uM (reference value: 0.875 +/- 0.035); format: functional
# SH-SY5Y [10] = experiment: Cytoprotective activity against H2O2-induced apoptosis in human SH-SY5Y cells assessed as relative cleaved caspase-7 levels at 0.1 uM (reference value: 1.025 +/- 0.120); format: functional
# [11] = target: T1, Mitogen-activated protein kinase; ERK1/ERK2 (Homo sapiens) (UniProt P27361+P28482); experiment: Inhibition of H2O2-induced p44/42 MAPK phosphorylation in human SH-SY5Y cells at 0.1 uM; format: cell-based
# [12] = target: T2, MAP kinase p38 (Homo sapiens) (UniProt O15264+Q15759+Q16539+P53778); experiment: Inhibition of H2O2-induced p38 MAPK phosphorylation in human SH-SY5Y cells at 0.1 uM; format: cell-based
# SH-SY5Y [13] = experiment: Cytoprotective activity against H2O2-induced apoptosis in human SH-SY5Y cells assessed as relative Bcl-2 levels at 10 uM preincubated for 24 hrs followed by H2O2 addition measured after 1 hr by Western blot analysis (reference value: 2.084 +/- 0.078); format: functional
# SH-SY5Y [14] = experiment: Cytoprotective activity against H2O2-induced apoptosis in human SH-SY5Y cells assessed as increase in Bcl-2/Bax ratio at 10 uM preincubated for 24 hrs followed by H2O2 addition measured after 1 hr by Western blot analysis; format: functional, cell-based
# [15] = target: Eukaryotic translation initiation factor 2 subunit 1 (Homo sapiens) (UniProt P05198); experiment: Inhibition of H2O2-induced eIF2alpha phosphorylation in human SH-SY5Y cells at 1 uM; format: cell-based
# [16] = target: T1, Mitogen-activated protein kinase; ERK1/ERK2 (Homo sapiens); experiment: Inhibition of H2O2-induced p44/42 MAPK phosphorylation in human SH-SY5Y cells at 10 uM; format: cell-based
# [17] = target: RAC-alpha serine/threonine-protein kinase (Homo sapiens) (UniProt P31749); experiment: Induction of Akt phosphorylation in H2O2-treated human SH-SY5Y cells at 0.1 uM by ELISA; format: cell-based
# [18] = target: RAC-alpha serine/threonine-protein kinase (Homo sapiens) (UniProt P31749); experiment: Induction of Akt phosphorylation in H2O2-treated human SH-SY5Y cells assessed as increase in pBad levels at 0.1 uM by ELISA; format: cell-based
# SH-SY5Y [19] = experiment: Cytoprotective activity against H2O2-induced apoptosis in human SH-SY5Y cells assessed as increase in Bcl-2 levels at 0.1 uM preincubated for 24 hrs followed by H2O2 addition measured after 1 hr by Western blot analysis; format: functional, cell-based
# SH-SY5Y [20] = experiment: Cytoprotective activity against H2O2-induced apoptosis in human SH-SY5Y cells assessed as increase in Bcl-2/Bax ratio at 0.1 uM preincubated for 24 hrs followed by H2O2 addition measured after 1 hr by Western blot analysis; format: functional, cell-based
# SH-SY5Y [21] = experiment: Cytoprotective activity against H2O2-induced apoptosis in human SH-SY5Y cells assessed as relative Bcl-2 levels at 0.1 uM preincubated for 24 hrs followed by H2O2 addition measured after 1 hr by Western blot analysis (reference value: 2.084 +/- 0.078); format: functional
# SH-SY5Y [22] = experiment: Cytoprotective activity against H2O2-induced apoptosis in human SH-SY5Y cells assessed as decrease in Bax levels at 1 uM preincubated for 24 hrs followed by H2O2 addition measured after 1 hr by Western blot analysis; format: functional, cell-based
# SH-SY5Y [23] = experiment: Cytoprotective activity against H2O2-induced apoptosis in human SH-SY5Y cells assessed as relative Bcl-2 levels at 1 uM preincubated for 24 hrs followed by H2O2 addition measured after 1 hr by Western blot analysis (reference value: 2.084 +/- 0.078); format: functional
# SH-SY5Y [24] = experiment: Cytoprotective activity against H2O2-induced apoptosis in human SH-SY5Y cells assessed as increase in Bcl-2/Bax ratio at 1 uM preincubated for 24 hrs followed by H2O2 addition measured after 1 hr by Western blot analysis; format: functional, cell-based
# [25] = target: T2, MAP kinase p38 (Homo sapiens); experiment: Inhibition of H2O2-induced p38 MAPK phosphorylation in human SH-SY5Y cells at 1 uM; format: cell-based
# SH-SY5Y [26] = experiment: Cytoprotective activity against H2O2-induced apoptosis in human SH-SY5Y cells assessed as relative cleaved PARP levels at 1 uM (reference value: 0.725 +/- 0.06); format: functional
# SH-SY5Y [27] = experiment: Cytoprotective activity against H2O2-induced apoptosis in human SH-SY5Y cells assessed as relative cleaved caspase-3 levels at 1 uM (reference value: 0.875 +/- 0.035); format: functional
# [28] = target: RAC-alpha serine/threonine-protein kinase (Homo sapiens) (UniProt P31749); experiment: Induction of Akt phosphorylation in H2O2-treated human SH-SY5Y cells at 1 uM by ELISA; format: cell-based
# [29] = target: RAC-alpha serine/threonine-protein kinase (Homo sapiens) (UniProt P31749); experiment: Induction of Akt phosphorylation in H2O2-treated human SH-SY5Y cells assessed as increase in pBad levels at 1 uM by ELISA; format: cell-based
# [30] = target: T1, Mitogen-activated protein kinase; ERK1/ERK2 (Homo sapiens); experiment: Inhibition of H2O2-induced p44/42 MAPK phosphorylation in human SH-SY5Y cells at 1 uM; format: cell-based
# [31] = Cytoprotective activity against H2O2-induced apoptosis in human SH-SY5Y cells assessed as relative cleaved caspase-7 levels at 1 uM (reference value: 1.025 +/- 0.120)
# Eukaryotic translation initiation factor 2 subunit 1 (Homo sapiens), sequence (P05198 whole entry): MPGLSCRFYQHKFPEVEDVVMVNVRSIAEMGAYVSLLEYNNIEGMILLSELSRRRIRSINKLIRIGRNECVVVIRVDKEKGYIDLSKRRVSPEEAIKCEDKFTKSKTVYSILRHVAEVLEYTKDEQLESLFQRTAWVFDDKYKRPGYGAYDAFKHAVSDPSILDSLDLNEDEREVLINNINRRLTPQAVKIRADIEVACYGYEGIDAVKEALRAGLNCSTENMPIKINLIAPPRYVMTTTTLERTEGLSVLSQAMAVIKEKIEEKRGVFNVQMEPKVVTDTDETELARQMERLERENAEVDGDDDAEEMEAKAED
# RAC-alpha serine/threonine-protein kinase (Homo sapiens), sequence (P31749 whole entry): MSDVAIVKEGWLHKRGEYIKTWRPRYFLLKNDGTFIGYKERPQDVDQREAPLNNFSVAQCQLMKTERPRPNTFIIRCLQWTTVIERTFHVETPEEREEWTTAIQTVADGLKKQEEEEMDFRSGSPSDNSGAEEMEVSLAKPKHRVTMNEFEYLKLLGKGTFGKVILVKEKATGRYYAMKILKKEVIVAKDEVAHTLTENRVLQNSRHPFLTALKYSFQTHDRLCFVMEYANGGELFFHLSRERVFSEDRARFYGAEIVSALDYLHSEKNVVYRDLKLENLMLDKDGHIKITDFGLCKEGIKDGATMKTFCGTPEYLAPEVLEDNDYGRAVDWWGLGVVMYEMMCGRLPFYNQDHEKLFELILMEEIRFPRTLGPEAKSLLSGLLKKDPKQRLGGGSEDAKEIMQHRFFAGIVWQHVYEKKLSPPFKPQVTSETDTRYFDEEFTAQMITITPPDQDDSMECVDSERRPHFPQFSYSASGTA
# T1 sequence (P27361 whole entry, looked up): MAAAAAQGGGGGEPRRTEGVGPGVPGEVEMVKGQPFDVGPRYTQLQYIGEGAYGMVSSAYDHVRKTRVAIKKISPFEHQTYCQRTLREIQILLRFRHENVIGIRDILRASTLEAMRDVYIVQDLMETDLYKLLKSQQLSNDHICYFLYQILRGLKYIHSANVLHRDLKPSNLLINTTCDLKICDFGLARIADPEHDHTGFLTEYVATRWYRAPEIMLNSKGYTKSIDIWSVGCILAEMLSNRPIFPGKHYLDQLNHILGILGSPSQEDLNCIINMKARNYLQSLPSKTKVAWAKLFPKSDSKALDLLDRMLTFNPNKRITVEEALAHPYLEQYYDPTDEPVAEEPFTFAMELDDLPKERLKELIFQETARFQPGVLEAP
# T1 sequence (P28482 whole entry, looked up): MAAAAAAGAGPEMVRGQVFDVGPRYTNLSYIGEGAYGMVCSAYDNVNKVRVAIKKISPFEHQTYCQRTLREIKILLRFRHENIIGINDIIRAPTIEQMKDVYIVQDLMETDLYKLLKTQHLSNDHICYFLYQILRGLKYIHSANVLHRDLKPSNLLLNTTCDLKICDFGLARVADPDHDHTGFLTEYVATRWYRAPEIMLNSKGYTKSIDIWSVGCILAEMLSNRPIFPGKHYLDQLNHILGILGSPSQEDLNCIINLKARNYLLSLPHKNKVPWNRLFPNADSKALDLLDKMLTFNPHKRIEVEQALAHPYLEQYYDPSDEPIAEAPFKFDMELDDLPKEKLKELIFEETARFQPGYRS
inhibition [7],Activity [17],Activity [18],Structure (SMILES),viability at 10 µM (SH-SY5Y [1]) [%],viability at 1 µM (SH-SY5Y [2]) [%],viability at 0.1 µM (SH-SY5Y [3]) [%],Activity (SH-SY5Y [4]),Activity (SH-SY5Y [5]),Activity (SH-SY5Y [6]),also measured
,,,COc1ccc(-c2nc3nnccn3c2-c2cccc(F)c2)cc1,66.4,51.3,54.6,Dose-dependent effect,Non-Toxic,,
inactive,,,COc1cccc(-c2cn3ccnnc3n2)c1,65,62.8,73.8,Dose-dependent effect,Non-Toxic,Active,fold change (FC) (SH-SY5Y [8]): 0.48; fold change (FC) (SH-SY5Y [9]): 0.595; fold change (FC) (SH-SY5Y [10]): 0.815; inhibition [11]: Active; inhibition [12]: Active
,,,COc1ccc(-c2nc3nnccn3c2-c2ccc(OC)cc2)cc1,75.2,65.5,49.6,Dose-dependent effect,Non-Toxic,,fold change (FC) (SH-SY5Y [13]): 3.015; Activity (SH-SY5Y [14]): Active; inhibition [15]: inactive; inhibition [16]: Active
inactive,inactive,inactive,COc1ccc(-c2nc3nnccn3c2-c2ccc([N+](=O)[O-])cc2)cc1,74.9,56,81.2,Dose-dependent effect,Non-Toxic,Active,
inactive,Active,Active,c1ccc(-c2cn3ccnnc3n2)cc1,62.6,72.8,77.3,Dose-dependent effect,Non-Toxic,inactive,
,,,COc1ccc(-c2nc3nnccn3c2-c2ccncc2)cc1,61.5,55.7,64.1,Dose-dependent effect,Non-Toxic,,
inactive,Active,Active,COc1ccc(-c2nc3nnccn3c2-c2ccc(OC(F)(F)F)cc2)cc1,66.8,54.8,78.6,Dose-dependent effect,Non-Toxic,Active,Activity (SH-SY5Y [19]): Active; Activity (SH-SY5Y [20]): Active
inactive,,,FC(F)(F)c1ccc(-c2cn3ccnnc3n2)cc1,60.8,59.1,85.1,Dose-dependent effect,Non-Toxic,Active,fold change (FC) (SH-SY5Y [21]): 2.923; Activity (SH-SY5Y [20]): Active; inhibition [12]: Active
inactive,Active,Active,COc1ccc(-c2nc3nnccn3c2-c2ccccc2)cc1,79.7,50.6,72.9,Dose-dependent effect,Non-Toxic,Active,Activity (SH-SY5Y [19]): Active; Activity (SH-SY5Y [20]): Active
,Active,inactive,COc1ccc(-c2nc3nnccn3c2-c2cccs2)cc1,68.4,70.7,44.6,Dose-dependent effect,Non-Toxic,,Activity (SH-SY5Y [22]): inactive; fold change (FC) (SH-SY5Y [23]): 2.955; Activity (SH-SY5Y [24]): Active; inhibition [15]: inactive
,,,O=[N+]([O-])c1cccc(-c2cn3ccnnc3n2)c1,65.7,58.9,61.5,Dose-dependent effect,Non-Toxic,,
,,,COc1ccc(-c2nc3nnccn3c2-c2ccc(C)cc2)cc1,63.3,67.4,55.3,Dose-dependent effect,Non-Toxic,,inhibition [25]: Active; fold change (FC) (SH-SY5Y [26]): 0.581; fold change (FC) (SH-SY5Y [27]): 0.628; Activity [28]: Active; Activity [29]: Active; inhibition [15]: inactive; inhibition [30]: Active; fold change (FC) [31]: 0.856
,Active,Active,COc1ccc(-c2nc3nnccn3c2-c2ccc(C)c([N+](=O)[O-])c2)cc1,83.3,79.6,49.5,Dose-dependent effect,Non-Toxic,,Activity (SH-SY5Y [22]): Active; fold change (FC) (SH-SY5Y [23]): 2.398; Activity (SH-SY5Y [24]): Active; inhibition [15]: inactive; inhibition [30]: Active; fold change (FC) [31]: 0.834
,,,N#Cc1ccc(-c2cn3ccnnc3n2)cc1,54.2,65.4,67.1,Dose-dependent effect,Non-Toxic,,
inactive,,,COc1ccc(-c2nc3nnccn3c2-c2cccc(C#N)c2)cc1,54.3,55.5,66.6,Dose-dependent effect,Non-Toxic,,
inactive,,,COc1ccc(-c2cn3ccnnc3n2)cc1,60.9,71.3,73.9,Dose-dependent effect,Non-Toxic,Active,fold change (FC) (SH-SY5Y [8]): 0.62; fold change (FC) (SH-SY5Y [9]): 0.705; inhibition [11]: Active
inactive,Active,Active,COc1ccccc1-c1cn2ccnnc2n1,51.1,60.5,62.7,Dose-dependent effect,Non-Toxic,Active,Activity (SH-SY5Y [19]): Active
,,,COc1ccc(-c2nc3nnccn3c2-c2ccccc2C)cc1,72.4,73.8,60.7,Dose-dependent effect,Non-Toxic,,Activity (SH-SY5Y [22]): Active; inhibition [15]: inactive; inhibition [30]: Active

# Source: ChEMBL document CHEMBL4145470, “Efficient synthesis and first regioselective C-6 direct arylation of imidazo[2,1-c][1,2,4]triazine scaffold and their evaluation in H2O2-induced oxidative stress” (Eur J Med Chem, 2018)
